Source: US20250295610A1, “NEUROPROTECTIVE AGENTS FOR USE IN THE TREATMENT OF OPTIC NEUROPATHIES” (The Board of Trustees of the Leland Stanford Junior …, priority 2021, published 2025)
Entries after “also recorded” stand apart in the source; their conditions may differ.

Columns and labels:
[1] = system: CHOP promoter-driven luciferase (CHOP-Luc) in HEK293T cells; test: CHOP-Luc reporter cell-based assay (HTS and retest); parameters: species or system human; settings: Tm/Tg 1 μM; for CHOP-luciferase activity induced by ER stress (Tm/Tg): compound at 10 µM, relative to DMSO (FIG. 1d); for CHOP-luciferase activity: compound at 20 μM, 24 hours (FIG. 9e)
Protocol: ER stress reporter cell lines.
Cell-based HTS. The HTS to identify CHOP expression inhibitors was performed at the Stanford High-Throughput Bioscience Center with small molecule libraries containing 4846 total known bioactive, FDA approved drugs and clinical trial compounds; libraries included Biomol FDA, Biomol ICCB, Microsource (MS) Spectrum, Sigma LOPAC, and NIH Clinical Collection (NIH-CC). All the compounds were run in 7-point dose response based on a previous publication; except the NIH Clinical collection (446 compounds) which were tested in duplicate due to the small quantity of compounds on hand. Most of the NIH-CC was screened at 10 µM, but this varied per compound. […] We used the Pin Tool to transfer 100 nL of the compounds into 50 μL final volume. Therefore, we did a 500-fold dilution of the stock plates, which were at 10, 5, 2.5, 1.25, 0.625, 0.3125, and 0.156 mM resulting in final concentrations of 20, 10, 5, 2.5, 1.25, 0.625, and 0.3125 µM (for most of the compounds but not all). The final DMSO concentration was 0.2% for all wells. Briefly, CHOP-Luc cells were seeded in 384-well plates (Greiner Bio-One […]) at a density of 2×10^5 cells per well in 40 μL medium and cultured for 24 hours before treatment with tunicamycin (Tm)+thapsigargin (Tg) at 1 μM in 10 μL medium followed by adding 100 nL of one of the testing compounds using a Staccato SciClone ALH3000 small molecule liquid handling system (Caliper Life Sciences) and V&P Scientific 384 pin tools. AeraSeal sterile adhesive microplate seals (Excel Scientific; Victorville, CA) were used to seal plates that were incubated at 5% CO2, 37° C. for 24 hours, when luciferase activity was assayed by adding 10 μL of Bright™-Glo Luciferase reagent (Promega) to each well and detected by a Tecan Infinite M1000 Pro plate reader. Percentage of CHOP-Luc inhibition=100%−(Compound value−DMSO control value)/(Tm/Tg value−DMSO control value)×100%. The compounds achieving >30% of CHOP-Luc inhibition were considered as “hits”. Luciferase activity of all the tested compounds was determined by meta-analysis of luciferase activity in different cell lines under the control of a generic or other promoters. Any compound that appeared in more than 3 non-related luciferase screens was likely a toxic compound or luciferase inhibitor and therefore eliminated. There was no true cutoff, other than an IC50<20 µM (or the highest concentration tested).

[2] = system: RGC somata and axons, mouse ONC model; test: Neuroprotection in traumatic ON crush (ONC) model; assay type: in vivo; settings: for neuroprotection of RGCs and ONs: mouse ONC model, traumatic ON injury; for GCC thickness by OCT: mouse ONC, intravitreal 2 μl of 2 mM once + i.p. 15 mg/kg daily, vs DMSO
Protocol: ON crush model. The ON was exposed intraorbitally while care was taken not to damage the underlying ophthalmic artery, and crushed with a jeweler's forceps (Dumont #5; Fine Science Tools, Foster City, California) for 5 seconds approximately 0.5 mm behind the eyeball. Eye ointment containing neomycin (Akorn, Somerset, New Jersey) was applied to protect the cornea after surgery. For compound treatment, each eye received intravitreal injection with 2 μl of 2 mM test compounds once and intraperitoneal (i.p.) injection daily (15 mg/kg) for 14 days after ONC.

[3] = system: three UPR pathways induced by ER stress (Tm/Tg) in HEK293T cells; test: UPR signaling cascades in HEK293T cells (immunoblot, RT-PCR, qPCR); assay type: cell-based, human; settings: Tm/Tg 1 μM; for UPR pathways induced by ER stress: HEK293T cells, compound 10 μM; for XBP-1 mRNA splicing: RT-PCR
[4] = system: ONC-induced ER stress in RGCs; test: ER stress molecules in RGCs and ONs after ON crush (ONC); settings: mouse, after traumatic ON injury, in vivo application
Protocol: Protein Preparation and Immunoblotting. Cell and tissue lysates were prepared in RIPA buffer (Themo Fisher Scientific, 89901) and supplemented with Halt Protease inhibitor cocktail (Themo Fisher Scientific, PI78437). The total protein concentration of lysates was measured by the Pierce BCA Protein Assay Kit (Thermo Fisher Scientific, 23227). 20 μg protein of each sample were denatured at 95° C. for 15 min in 100 mM DTT+1× Laemmli buffer before being separated by SDS-PAGE. We then transferred the protein samples to 0.2 μm nitrocellulose membranes (Bio-Rad, 1610097) and blocked with 5% BSA for 2 hours. Subsequently, the membranes were incubated with primary antibodies (1:1000) overnight at 4° C. After washing in TBST, these membranes were incubated with horseradish peroxidase-conjugated secondary antibodies (Cell Signaling, 7074S and 7076S, 1:1000) and visualized using a GE-A1600 imaging system. Images were quantified with ImageJ software. The primary antibodies used were PERK (Cell Signaling, 3192S), p-PERK (Cell Signaling, 3179S), eIF2a (Cell Signaling, 5324S), p-eIF2a (Cell Signaling, 3597L), ATF4 (Cell Signaling, 11815S), CHOP (Cell Signaling, 2895S), ATF6 (Cell Signaling, 65880T), IRE1a (Cell Signaling, 3294T), IRE1 (phosphor-S724) (Thermo Fisher, PA116927), phospho-SAPK/JNK (Thr183/Tyr185) (Cell Signaling, 9251S), phospho-p38 MAPK (Thr180/Tyr182) (Cell Signaling, 9215S), β-Actin (sigma, A5441), XBP-1s (Biolegend, 647502), XBP-1 (Santa Cruz, sc-8501), anti-RBPMS (Custom made at ProSci Inc).
ON crush model. The ON was exposed intraorbitally while care was taken not to damage the underlying ophthalmic artery, and crushed with a jeweler's forceps (Dumont #5; Fine Science Tools, Foster City, California) for 5 seconds approximately 0.5 mm behind the eyeball. Eye ointment containing neomycin (Akorn, Somerset, New Jersey) was applied to protect the cornea after surgery. For compound treatment, each eye received intravitreal injection with 2 μl of 2 mM test compounds once and intraperitoneal (i.p.) injection daily (15 mg/kg) for 14 days after ONC. […]

RGCs expressing D4ER = settings: mouse retina explants after ONC
Protocol: Ex vivo ER Ca^2 + imaging in retina explants. ER calcium levels were measured using the Forster resonance energy transfer (FRET)-based ER targeted calcium sensor, D4ER. […] For imaging, retinas were dissected out at 3, 7 or 14dpc and plated onto laminin (Sigma, L2020) and poly-D-lysin-coated glass bottom dishes (MatTek, P35GC1.510C) and maintained in Neurobasal-A medium (ThermoFisher Scientific, 10888022) supplemented with L-glutamine (Gibco, 25030-081), penicillin/streptomycin (Gibco, 15140122) and B-27 (ThermoFisher Scientific, 0080085SA). Retina explants were imaged using a Zeiss LSM 800 microscope. ER [Ca^2 +] levels were determined by exciting D4ER at 440 nm to record the emitted light at 465-485 nm and 530-550 nm, and analyzed with ImageJ.

[5] = system: XBP-1-Luc HEK293T reporter cell line (IRE1α activity and XBP-1 splicing); settings: Tm/Tg 1 μM, 24 hours
[6] = mouse, 6 and 24 hours after injection
Protocol: Retinal tissues were homogenized with 100 μL of pre-chilled 20% acetonitrile and then diluted 2-fold with blank mouse plasma. An aliquot of 20 μL of diluted retina homogenate was extracted with 100 μL of methanol: acetonitrile (5:95, v: v) containing the internal standard (Verapamil). The mixture was shaken on a shaker for 15 minutes and then centrifuged at 3220 g for 15 minutes. An aliquot of 70 μL of the supernatant was mixed with 70 μL of water for the injection to the LC-MS. Calibration standards and quality control samples were prepared by spiking 2 μL of the test compound into 18 μL of blank mouse plasma, and the resulting plasma was processed with the unknown samples in the same batch. The extracts were analyzed by a Shimadzu LC-30AD interfaced to a Sciex API 5000 system. The extracts were injected onto an ACE 3 C18 column (50×2.1 mm, 3.0 μm) and separated by the gradient elution using water with 10 mM ammonium acetate (A) and acetonitrile with 0.1% formic acid (B) as mobile phases. The gradient program started at 10% B, held for 0.2 min, ramped to 95% B at 1.5 min, remained at 95% at 2.4 min, dropped to 10% B at 2.45 min, and stayed at 10% B till 3.2 min. […] The calibration curve fitted by linear regression was used to quantify the analytes in the matrix using Analyst software 1.6.2 (Sciex).

[7] = system: naïve mouse retinas and ON; settings: one month after systemic administration
Protocol: Immunohistochemistry of whole mount and cross sections of retina. After perfusion fixation with 4% PFA in PBS, mice eyeballs and ONs were dissected out and post-fixed with 4% PFA for 2 hours at room temperature. Retinas were dissected out for whole mount retina immunostaining. For cryo-section with Leica cryostat, the eyeballs and ONs were embedded in tissue-tek OCT (Sakura) on dry ice for subsequent cryo-section. The sections were blocked with 10% goat serum (Sigma, G9023) for 2 hours before incubating with primary antibodies: RBPMS 1:4000, others 1:200 overnight at 4° C. […]
RGC counting. Whole-mount retinas were immunostained with the RBPMS antibody, 6-8 fields randomly sampled from peripheral regions of each retina using a 40× lens with a Zeiss M2 epifluorescence microscope, and RBPMS+RGCs counted by Volocity software (Quorum Technologies). The percentage of RGC survival was calculated as the ratio of surviving RGC numbers in injured eyes compared to contralateral uninjured eyes. The investigators who counted the cells were masked to the treatment of the samples.
ON semi-thin sections and quantification of surviving axons. […] Two areas of 21.4 μm×29.1 μm were cropped from the center of each image, and the surviving axons within the designated areas counted manually using ImageJ. […]

[8] = system: visual function, mouse SOHU glaucoma model; test: Visual function (PERG, OKR) in SOHU glaucoma model; assay type: in vivo; settings: 3wpi, vs DMSO
Protocol: Control groups received the same volume of DMSO as vehicle control.
Pattern Electroretinogram (PERG) recording. After anesthetization and pupil dilation, PERG of both eyes was recorded simultaneously with the Miami PERG system (Intelligent Hearing Systems, Miami, Florida) according to manufacturer's instructions. Two consecutive recordings of 200 traces were averaged to achieve one readout; each trace recorded up to 1020 ms. The first positive peak in the waveform was designated as P1 and the second negative peak as N2. The amplitude was measured from P1 to N2.
Optokinetic Tracking Response (OKR). Mice were placed on a platform in the center of four 17-inch LCD computer monitors (Dell, Phoenix, AZ), with a video camera above the platform to capture the movement of the mouse. A rotating cylinder with vertical sine wave grating was computed and projected to the four monitors by OptoMotry software (Cere-bralMechanics Inc, Lethbridge, Alberta, Canada). […] The maximum frequency (cycle/degree) that the mouse could track was identified and recorded by investigators masked to treatment. The relative percentages of visual acuity were calculated as the ratio of maximum frequency in disease eye compared to contralateral control eye.

RGCs expressing jGCaMP7s = settings: living mice, SLO, early and later time points after ONC
Protocol: In vivo RGC Ca^2 + imaging with SLO. The mice were intravitreally injected with AAV2-mSncg-jGCaMP7s (9×10^9 vg/retina) 4 weeks before imaging. The mice were anesthetized by xylazine and ketamine after dark adaptation for 30 minutes. Mydriasis was achieved by applying a drop of 1% tropicamide solution and a drop of 2.5% phenylephrine hydrochloride solution, which prevents pupillary contraction during recording. Right after ON crush, the mice were placed on a 3D-printed mouse holder with a 37° C. heater, and a custom-made+10D mouse contact lens (3.0 mm diameter, 1.6 mm BC, PMMA clear, Advanced Vision Technologies) attached to keep the cornea from drying. The retinal fundus was imaged by the Heidelberg Spectralis SLO/OCT system (Heidelberg Engineering, Germany) with a 55° lens using the fluorescein angiography scanning mode under the same sensitivity (sensitivity 75-85) and high-resolution (1536×1536 pixels).

HEK293T cells = HEK293T cells expressing jGCaMP7s, Tm/Tg 1 μM
Protocol: HEK293T cells were seeded at 10% confluence the day before transfection in poly-D-lysin-coated glass bottom 35 mm dishes (MatTek, P35GC1.510C). Two hours prior to transfection, media was removed and 1 mL of FBS-free DMEM media was added to each well. We then mixed 2 μg of the jGCaMP7s plasmid in 100 μl DMEM. In a separate tube, we diluted 4 μl PolyJet™ (SignaGen Laboratories, SL100688) reagent in 100 μl with DMEM, and incubate for 10 minutes. The complete mixture of DNA and PolyJet was incubated for another 15 min before being added to the HEK293T cells. Six hours later, the media was changed to 1 ml/well culture media. The next day, cytosolic Ca^2 + was imaged in cells transiently transfected with jGCaMP7s through a Zeiss LSM 800 confocal microscope. Dynamic intracellular Ca^2 + influx in response to Tm/Tg-induced ER stress was measured every 10 seconds for 100 seconds before Tm/Tg treatment to acquire baseline fluorescence (F0) and for 400 seconds after Tm/Tg administration to acquire F1. ΔF=F1−F0. Data were analyzed with ImageJ.

[9] = system: CHO luciferase reporter cell line driven by murine CHOP promoter; settings: different CHO luciferase reporter cell line; cited from earlier work
[10] = HEK293T, immunoblot, 10 μM, 24 hours

Row | Structure (SMILES) | CHOP-luciferase activity induced by ER stress (Tm/Tg) ([1]; 24 hours) | neuroprotection of RGCs and ONs [2] | CHOP-luciferase activity [1] | GCC thickness by OCT ([2]; 14dpc) | UPR pathways induced by ER stress [3] | RGC ER stress [4] | further results
1 | Cn1cc(-c2ccc3c(c2)CCN3C(=O)Cc2cccc(C(F)(F)F)c2)c2c(N)ncnc21 [GSK2606414] | – | – | – | – | – | – | CHOP-luciferase activity induced by Tm/Tg, reference compounds ([1]; FIG. 1d and FIG. 9e (10 µM and 20 μM), 24 hours): significantly inhibited
2 | O=C(COc1ccc(Cl)cc1)NC1CCC(NC(=O)COc2ccc(Cl)cc2)CC1 (stereo not drawn) [ISRIB] | no effect; also recorded: did not have a significant inhibition effect | provided neuroprotection in the ONC mouse model, to a lesser degree than maprotiline; also recorded: significant neuroprotection | – | – | – | – | –
3 | COc1ccc2c(c1)CC[C@@H]1[C@@H]2CC[C@]2(C)[C@@H](NCCCCCCN3C(=O)C=CC3=O)CC[C@@H]12 [U-73122] | – | – | – | – | – | – | protection of RGC axons ([2]; mouse, after ONC injury, 14dpc): protected; protection of RGC somata ([2]; mouse, after ONC injury, 14dpc): protected
4 | CN(C)CCC=C1c2ccccc2CCc2ccccc21 [amitriptyline] | – | – | inhibited | – | – | – | –
5 | Clc1ccc2c(c1)C(N1CCNCC1)=Nc1ccccc1O2 [amoxapine] | significantly inhibited | significantly protects | – | significantly thicker | inhibit all three UPR pathways | effectively inhibits | XBP-1 mRNA splicing ([3]; HEK293T, 10 μM, 24 hours): significantly inhibited
6 | CN(C)CCCN1c2ccccc2CCc2ccc(Cl)cc21 [clomipramine] | – | – | inhibited | – | – | – | –
7 | CNCCCN1c2ccccc2CCc2ccccc21 [desipramine] | – | – | inhibited | – | – | – | –
8 | Clc1ccc2c(c1)CCc1cccnc1C2=C1CCNCC1 [desloratadine] | – | significantly protects | – | significantly thicker | inhibit all three UPR pathways | effectively inhibits | JNK phosphorylation [3, 10]: significantly inhibited
9 | CNCCCC12CCC(c3ccccc31)c1ccccc12 [maprotiline] | significantly inhibited | significantly protects | – | significantly thicker | inhibit all three UPR pathways | effectively inhibits | ER Ca2+ concentration of RGCs after ONC (D4ER FRET) (RGCs expressing D4ER): maintained ER Ca^2 + concentration at much higher levels; XBP-1 splicing induced by Tm/Tg (XBP-1s-Luc) [5]: dose-dependent inhibition; maprotiline in the retina after i.p. injection (LC-MS) [6]: presence of maprotiline in the retina; RGC or ON degeneration [7]: no RGC or ON degeneration; immune cell infiltration in retina and ON [7]: no immune cell infiltration; downstream genes of UPR at the mRNA levels (qPCR) ([3]; HEK293T, 12 hours, 10 µM): the most striking modulation; XBP-1 mRNA splicing ([3]; HEK293T, 10 μM, 24 hours): significantly inhibited; IRE1α phosphorylation [3, 10]: inhibited; JNK phosphorylation [3, 10]: significantly inhibited; amplitude of PERG [8]: improved; visual acuity (OKR) [8]: improved; intra-RGC Ca2+ levels after ONC (RGCs expressing jGCaMP7s): significantly decreased; Tm/Tg-induced intracellular Ca2+ influx (HEK293T cells): significantly blocked
10 | CN1CCN(CCCN2c3ccccc3Sc3ccc(C(F)(F)F)cc32)CC1 [trifluoperazine] | – | – | inhibited | – | – | – | CHOP inhibitor in a previous study [9]: CHOP inhibitor
